In patent US20260009799A1, “CA-IX TARGETING FLUORESCENT PROBES” (BRACCO IMAGING S.P.A., priority 2022, published 2026):

Columns and labels:
[1] = molecular target: T1, CA-IX expressing HT-29 cells (Homo sapiens, UniProt Q16790); experiment: Cellular binding assessment by flow cytometry; conditions: for Kd: HT-29 cells, 1 hour 30 min on ice, flow cytometry, read-out: CA-IX receptor affinity (KD, nM to HT-29 cells); for KD to HT-29 cells, fold lower than corresponding Reference compound: compound 1 vs Reference 2, compound 2 vs Reference 3; for KD to HT-29 cells compared with Reference 1 (HF-1): versus Reference 1 (HF-1)
T1 construct: CA-IX, expressed in its physiological environment at the cell-surface; host or cells: HT-29 human colorectal adenocarcinoma cells
Method: Human colon adenocarcinoma HT-29 cells (ATCC) used for the cellular binding experiments were cultured in McCoy's 5A medium (Sigma-Aldrich), supplemented with 10% HyClone Fetal Clone III (Euroclone), 2 mM L-glutamine (Sigma-Aldrich), 100 IU/mL penicillin, 0.1 mg/mL streptomycin, 0.25 μg/mL amphotericin B (Antibiotic-Antimycotic solution, Life Technologies) and cells were grown at 37° C. in humidified atmosphere enriched with 5% CO2. DPBS without MgCl2 and CaCl2) (Sigma-Aldrich) was used for cell rinsing.
Indeed, by using the anti-human CA-IX antibody MAB2188 (R&D Systems) and the DAKO […], according to the instruction of the datasheet, HT-29 cells were estimated to express about 150,000 CA-IX molecules per cell. Thus, HT-29 cells were used to measure the binding of all compounds to CA-IX, expressed in its physiological environment at the cell-surface. Briefly, HT-29 cells were detached with StemPro® Accutase® Cell Dissociation Reagent (Life Technologies), collected in DPBS and counted. At least 2·10^5 HT-29 cells were placed in 1.5 mL tubes on ice and resuspended in 50-100 μL of cold FACS buffer (eBioscience™ Flow Cytometry Staining Buffer, Invitrogen) containing scalar concentrations of compounds (HF-1, reference 2, and compound 1: range 0-20 μM; reference 3: range 0-24 μM; compound 2: range 0-10 μM). After incubation (1 hour and 30 min on ice in the dark), cells were rinsed 3 times in 300 μL of cold FACS buffer by centrifugation (5 min, 4° C., 350 RCF), discarding the supernatant. Cell pellets were then resuspended in 200 μL of cold FACS buffer (or in an adequate volume in order to obtain no more than 1000 recorded events per μL during FACS analysis) and analyzed with the flow cytometer Accuri™ C6 (BD Biosciences). The mean cell-associated fluorescence was plotted against concentration and the dissociation constant at equilibrium (KD) was inferred by mathematical fitting with GraphPad Prism v.9 software, according to the following equation: […]
where Bmax is the maximum specific binding in the same units as Y; KD is the equilibrium dissociation constant, in the same units as X; NS is the slope of nonspecific binding in Y units divided by X units; and background is the amount of nonspecific binding with no added Compound.
All compounds were analyzed in at least three independent experiments.

[2] = molecular target: T2, human serum albumin (HSA) (Homo sapiens, UniProt P02768); experiment: Binding to albumin (ultrafiltration, absorbance of filtrates); assay type: in vitro ADME; conditions: 4.76 μM probe in PBS, 10 KDa cut off ultrafiltration, 25° C.; read-out: HSA affinity (KA, M^−1) (converted)
T2 construct: purchased Sigma-Aldrich A9511
Method: The affinity of the probes for human serum albumin (HSA) was determined to assess the influence of structural features on their albumin binding properties. Briefly, HSA (A9511, Sigma-Aldrich) was prepared in a […] stock solution in PBS and used to obtain a series of dilutions in PBS (0, 9.52·10^−7, 4.76·10^−6, 9.52·10^−6, 1.90·10^−5, 3.81·10^−5, 5.71·10^−5, 9.52·10^−5, 1.43·10^−4, 1.90·10^−4, 2.86·10^−4, 3.81·10^−4 M), in presence of 4.76 μM of the CA-IX-targeting probe (prepared from a 50 μM stock solution in PBS), in a total volume of 0.525 mL. The samples were centrifuged (10000 g for 30 min at 25° C.) in a Microcon device (10 KDa MW cut off, Amicon Ultra-0.5 Centrifugal Filter Unit with Ultracel-10 membrane) and the absorbance measurements of the filtrates were obtained with the spectrophotometer at the maximum absorbance wavelength of the fluorophore.
Data analysis was performed by fitting the raw data, using Microsoft Excel Solver, with the equation:
where ΔA/b=Absorbance measured (b=1 cm), KRL=KA calculated by fitting, Δε·Rt are calculated by fitting, and [L]=HSA concentration. ΔA/b values were experimentally obtained by subtracting the absorbance of “0 HSA sample” to the absorbance of each other sample.

[3] = Optical characterization (excitation/emission maxima, molar extinction coefficient); assay type: physicochemical; conditions: in water
[4] = as above; assay type: physicochemical; conditions: for Max Em (nm, PBS pH 7.4) / Max Em (nm, Seronorm): emission maximum; for Max Em (nm, Seronorm) / Max Ex (nm, Seronorm): Seronorm control serum; for Max Ex (nm, PBS pH 7.4) / Max Ex (nm, Seronorm): excitation maximum
Method: A dual-beam UV-VIS spectrophotometer (Lambda 40, Perkin Elmer) was used to determine the absorbance (Abs) of the compounds of the invention. Emission/excitation (Em/Ex) spectra were carried out on a spectrofluorometer (FluoroLog-3 1IHR-320, Horiba Jobin Yvon) equipped with an F-3018 integrating sphere accessory. The measurements were performed using an excitation wavelength at maximum absorbance of different dyes, and the sample was excited with a 450 W Xenon light Source. Detection was performed by photomultiplier tubes (PMT-NIR) cooled detector or by TBX-04 detector. Dye solutions were carefully prepared to have an absorbance lower than 0.1 (optical densities) to minimize re-absorption phenomena.
The compounds of the invention were characterized in terms of their optical properties in vitro in aqueous medium (i.e., water/PBS pH 7.4) and in a clinical chemistry control serum (Seronorm, Sero SA), mimicking the chemical composition and optical properties of human serum. All solutions were freshly prepared. In particular, the compounds of the invention are characterized by absorption maxima comprised in the range from about 750 nm to 780 nm.
The excitation and emission maxima in PBS and Seronorm and the molar extinction coefficient (ε) in water of representative compounds of formula (I) are shown in Table I in comparison with the known CA-IX targeting fluorescent probe named Hypoxyfluor-1 (HF-1, for instance disclosed in Bioconjugate Chem 2018, 29, 3320-3331). […] Moreover, the extinction coefficients were higher than 200,000 mM^−1 cm^−1 for all compounds.

target receptor CA-IX = molecular target: T3, target receptor CA-IX (Homo sapiens, UniProt Q16790); experiment: Cell uptake competition with 100x excess acetazolamide; assay type: cell-based; conditions: for % uptake in presence of 100x excess acetazolamide: 1 μM, 2 hours at 37° C., residual cellular uptake; for share of cell-associated fluorescence due to non-specific cellular uptake: flow cytometry
T3 construct: endogenous in cells
Method: The receptor-mediated uptake, i.e. whether the uptake of the probes was mediated by binding to the target receptor CA-IX, was analyzed by performing competition experiments.

[5] = molecular target: recombinant bovine CA-II enzyme (bCAII) (Bos taurus, UniProt P00921); experiment: Fluorescence-based dansylamide (DNSA) displacement assay on carbonic anhydrase catalytic site; conditions: for KD for bCAII, times lower than corresponding reference compound bearing the same cyanine dye: compound 1 vs Reference 2, compound 2 vs Reference 3
recombinant bovine CA-II enzyme (bCAII), sequence (P00921 whole entry): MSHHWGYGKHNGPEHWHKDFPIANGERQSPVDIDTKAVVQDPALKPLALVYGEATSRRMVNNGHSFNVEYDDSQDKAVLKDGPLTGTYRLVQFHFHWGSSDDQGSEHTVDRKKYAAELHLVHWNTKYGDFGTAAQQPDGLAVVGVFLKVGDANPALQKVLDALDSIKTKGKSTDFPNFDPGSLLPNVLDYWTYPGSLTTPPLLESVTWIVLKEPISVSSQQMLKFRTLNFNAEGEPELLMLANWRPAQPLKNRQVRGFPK

T2 sequence (P02768 25-609): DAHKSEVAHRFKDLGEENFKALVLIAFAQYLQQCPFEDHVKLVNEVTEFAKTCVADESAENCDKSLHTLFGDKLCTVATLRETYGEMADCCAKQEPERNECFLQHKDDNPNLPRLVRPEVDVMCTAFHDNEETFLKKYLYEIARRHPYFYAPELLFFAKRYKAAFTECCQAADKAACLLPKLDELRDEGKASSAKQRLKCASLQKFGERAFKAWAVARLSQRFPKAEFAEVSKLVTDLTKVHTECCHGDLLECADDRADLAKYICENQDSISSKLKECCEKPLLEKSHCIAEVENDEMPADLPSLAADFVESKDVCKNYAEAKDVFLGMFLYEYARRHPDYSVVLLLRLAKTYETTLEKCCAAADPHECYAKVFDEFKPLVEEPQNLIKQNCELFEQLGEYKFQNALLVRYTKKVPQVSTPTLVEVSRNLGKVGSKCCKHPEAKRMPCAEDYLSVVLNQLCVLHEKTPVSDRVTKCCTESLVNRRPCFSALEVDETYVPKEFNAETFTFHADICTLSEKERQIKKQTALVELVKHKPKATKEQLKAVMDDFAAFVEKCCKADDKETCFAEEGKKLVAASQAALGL

Row | Kd [1] [nM] | KD to HT-29 cells, fold lower than corresponding Reference compound [1] | KD to HT-29 cells compared with Reference 1 (HF-1) [1] | Kd [2] [nM] | molar extinction coefficient (ε) [3] [M⁻¹ cm⁻¹] | Max Em (nm, PBS pH 7.4) [4] [nm] | Max Em (nm, Seronorm) [4] [nm] | Max Ex (nm, PBS pH 7.4) [4] [nm] | Max Ex (nm, Seronorm) [4] [nm] | % uptake in presence of 100x excess acetazolamide (target receptor CA-IX) [%] | share of cell-associated fluorescence due to non-specific cellular uptake (target receptor CA-IX) | Kd [5] [nM] | KD for bCAII, times lower than corresponding reference compound bearing the same cyanine dye [5] [times] | SMILES
1 | 174 ± 15 | 2 fold | rather comparable | 80000 | 250000 | 806 | 812 | 782 | 792 | 6.5 ± 2.2 | about 10% | 13.5 ± 1.6 | 4 | CC1(C)C(/C=C/C2=C(Oc3ccc(S(=O)(=O)O)cc3)C(=C/C=C3/N(CCCCCC(=O)NCCCCCCCC(=O)Nc4nnc(S(N)(=O)=O)s4)c4ccc(C(=O)NC[C@H](O)[C@@H](O)[C@H](O)[C@H](O)CO)cc4C3(C)C)/CCC2)=[N+](CCCCS(=O)(=O)[O-])c2ccc(C(=O)NC[C@H](O)[C@@H](O)[C@H](O)[C@H](O)CO)cc21 [Compound 1]
2 | 58 ± 9 | more than 4 fold | 2 fold | 105000 | 250000 | 788 | 790 | 758 | 762 | 11.3 ± 1.7 | about 10% | 6.1 ± 1.6 | 5 | CC(CC[N+]1=C(/C=C/C=C/C=C/C=C2/N(CCCCCC(=O)NCCCCCCCC(=O)Nc3nnc(S(N)(=O)=O)s3)c3ccc(C(=O)NC[C@H](O)[C@@H](O)[C@H](O)[C@H](O)CO)cc3C2(C)C)C(C)(C)c2cc(C(=O)NC[C@H](O)[C@@H](O)[C@H](O)[C@H](O)CO)ccc21)S(=O)(=O)[O-] (some centres unmarked) [Compound 2]
